Source: patent US20150164930A1, “USE OF ARGINASE INHIBITORS IN THE TREATMENT OF ASTHMA AND ALLERGIC RHINITIS” (RIJKSUNIVERSITEIT GRONINGEN, priority 2006, published 2015)

Legend:
Assay type in all cases: in vivo
[1] = tested on: guinea pig model of allergic asthma (ovalbumin-sensitized); test: Prevention of allergen-induced EAR, LAR and AHR by pretreatment, equal allergen dose for both treatment groups (protection protocol, second experiment)
From the text: (§1) Outbred male specified pathogen free Dunkin Hartley guinea pigs (Harlan Heathfield, UK) were used in this example. All animals, weighing approximately 250 g, were actively IgE-sensitized to ovalbumin as described by Van Amsterdam et al. [Agents Actions 1989, 26:48-51]. The animals were operated on 2 weeks after sensitization and used experimentally in weeks 4 and 5 after sensitization. The animals were housed in individual cages in climate controlled animal quarters and given water and food ad libitum, while a 12 h on/12 h off light cycle was maintained. All protocols described in this study were approved by the University of Groningen Committee for Animal Experimentation.
(§2) Airway function was assessed by on-line measurement of pleural pressure (Ppl) under unrestrained conditions as described previously [Santing et al., Pulm Pharmacol 1992, 5:265-272; Meurs et al., Nature Protocols 2006, 1:840-847].
(§3) In short, a small fluid filled latex balloon catheter was surgically implanted inside the thoracic cavity. The free end of the catheter was driven subcutaneously to the neck of the animal, where it was exposed and attached permanently. Via an external fluid filled cannula, the pleural balloon catheter was connected to a pressure transducer (TXX R, Viggo-Spectramed, Bilthoven, Netherlands). Ppl (in cm H2O) was measured continuously using an on-line computer system.
(§4) Allergen and histamine provocations were performed by inhalation of aerosolized solutions. These provocations were carried out in a specially designed perspex cage of 9 l, in which the guinea pigs could move freely as previously described [Santing et al.; Meurs et al., both supra]. A DeVilbiss nebulizer (type 646) driven by an airflow of 8 l/min provided the aerosol with an output of 0.33 ml/min. The animals were habituated to the experimental conditions and the provocations procedure at least one week after surgery, when preoperative weight was restored, as described previously [Meurs et al, supra].
(§5) On the experimental days following the habituation procedure, allergen and/or histamine provocations were performed as described below. All provocations were preceded by an adaptation period of at least 30 min, followed by two consecutive control provocations with saline, each provocation lasting 3 min and separated by 7 min intervals. A baseline Ppl value was calculated by averaging the Ppl values from the last 20 min of the adaptation period.
(§6) In order to assess the airway reactivity for histamine, provocations with increasing concentration steps (6.25, 12.5, 25, 50, 75, 100 and 125 μg/ml) in saline were performed. Histamine provocations lasted 3 min and were separated by 7 min intervals. Animals were challenged until Ppl was increased by more than 100% above baseline for at least 3 consecutive minutes. The concentration of histamine causing a 100% increase of Ppl (PC 100) was derived by linear interpolation of the concentration Ppl curve and was used as an index for airway reactivity towards histamine. Ppl returned to baseline within 15 min after the last histamine provocation.
(§7) Allergen provocations were performed by inhalation of increasing concentrations of 0.5, 1.0 or 3.0 mg/ml ovalbumin in saline and were discontinued when the first signs of respiratory distress were observed and an increase in Ppl of more than 100% was reached.
In a second experiment, animals were challenged once with allergen. On the first experimental day, the basal histamine PC100 was assessed. The next day, animals were pretreated with either saline or ABH (25 mM; nebulizer concentration) 0.5 h before and 8 h after allergen inhalation. The ABH pretreated animals were challenged with the same allergen dose that caused airway obstruction in the saline treated guinea pigs. […]

[2] = tested on: guinea pig model of allergic asthma (ovalbumin-sensitized, airway responsiveness to inhaled histamine); test: Reversal of allergen-induced AHR in guinea pig model of allergic asthma (reversion protocol); settings: for effect on allergen-induced AHR after the EAR (histamine PC100): inhalation at 5.5 h after ovalbumin; for effect on allergen-induced AHR after the EAR (histamine PC100) / effect on allergen-induced AHR after the LAR (histamine PC100) / effect on basal airway responsiveness to inhaled histamine (PC100): ABH 25 mM, L- or D-arginine 1 M nebulizer concentration; for effect on allergen-induced AHR after the LAR (histamine PC100): inhalation at 23.5 h after ovalbumin; for effect on basal airway responsiveness to inhaled histamine (PC100): inhaled 15 min, PC100 30 min before and after inhalation
From the text: as §1, §2, §3, §4, §5, §6, §7
On two different occasions, separated by one week interval, guinea pigs were treated either with vehicle (saline) or drug (ABH, L-arginine or D-arginine), to establish the acute effects of these drugs on basal airway responsiveness to histamine as well as on allergen-induced airway hyperresponsiveness (AHR) after the EAR and the LAR (FIG. 2).
On the first experimental day, saline- or drug induced effects on basal histamine reactivity were established. Thirty minutes after the assessment of the basal histamine PC100, an aerosol of saline (control) or 25 mM ABH, 1.0 M L-arginine or 1.0 M D-arginine (nebulizer concentrations) was inhaled for 15 min. […]

[3] = tested on: guinea pig model of allergic asthma (ovalbumin-sensitized); test: Prevention of allergen-induced AHR by pretreatment, animals challenged with increasing allergen doses until obstruction (protection protocol)
From the text: as §1, §2, §3, §4, §5, §6, §7
On the first experimental day, the basal histamine PC100 was assessed. The next day, saline was inhaled for 15 min, 0.5 h prior to and at 8 h after allergen inhalation, and histamine PC100 measurements were performed 6 and 24 h post allergen challenge. One week later, the same protocol was repeated with inhalations of either 25 mM ABH (nebulizer concentration) or saline at t=−0.5 and 8 h. All animals were challenged with increasing doses of allergen (0.5, 1 and 3 mg/ml) until obstruction. […]

[4] = ABH 25 mM nebulizer 0.5 h before and 8 h after allergen, equal allergen dose, mean ± SEM

| Structure (SMILES) | AUC EAR (% change in Ppl time response curve between 0 and 5 h after allergen exposure) [1, 4] [% × 5 min] | AUC LAR (% change in Ppl time response curve between 8 and 24 h after allergen exposure) [1, 4] [% × 5 min] | initial peak response in Ppl after allergen challenge (allergen-induced acute bronchial obstruction) ([1]; ABH 25 mM nebulizer versus saline at the same allergen dose, P<0.01) | allergen-induced AHR after the LAR ([1]; equal allergen dose, saline treated 1.68±0.14-fold, P<0.005) [fold] | allergen-induced AHR after the EAR ([1]; equal allergen dose, saline treated 4.14±0.59-fold, P<0.01) [fold] | AHR100 (PC100 ratio pre/post allergen challenge) after EAR ([1]; histamine PC100 24 h before and 6 h after allergen, ABH 25 mM nebulizer 0.5 h before and 8 h after allergen, equal allergen dose) | AHR100 (PC100 ratio pre/post allergen challenge) after LAR ([1]; histamine PC100 24 h before and 24 h after allergen, ABH 25 mM nebulizer 0.5 h before and 8 h after allergen, equal allergen dose) | allergen-induced AHR after the EAR, PC100 ratio pre/post challenge ([2]; after ABH inhalation (25 mM nebulizer) at 5.5 h after ovalbumin, PC100 at 6 h, from 4.77±0.56-fold before inhalation, P<0.001) [fold] | allergen-induced AHR after the LAR, PC100 ratio pre/post challenge ([2]; after ABH inhalation (25 mM nebulizer) at 23.5 h after ovalbumin, PC100 at 24 h, from 1.95±0.23-fold before inhalation, P<0.10) [fold] | effect on allergen-induced AHR after the EAR (histamine PC100) [2] | effect on allergen-induced AHR after the LAR (histamine PC100) [2] | effect on basal airway responsiveness to inhaled histamine (PC100) [2] | protection against the AHR after the EAR as compared to saline control ([3]; 25 mM ABH 0.5 h before allergen challenge) | allergen-induced AHR after the LAR, PC100 ratio pre/post challenge ([3]; ABH 25 mM nebulizer 0.5 h before and 8 h after allergen, challenged until obstruction, saline control 2.08±0.31-fold, P<0.005) [fold] | allergen-induced AHR after the EAR, PC100 ratio pre/post challenge ([3]; ABH 25 mM nebulizer 0.5 h before and 8 h after allergen, challenged until obstruction, saline control week 1 6.33±1.30-fold, P<0.05) [fold] | fold higher ovalbumin needed to induce airways obstruction compared to saline treatment ([3]; ABH week 2 versus saline of the same animals week 1) [fold] | occurrence of AHR after the LAR ([3]; additional inhalation of 25 mM ABH at 8 h after allergen challenge) | ovalbumin dose needed to induce airways obstruction ([3]; after pretreatment with ABH 25 mM nebulizer in week 2, saline in same animals week 1 0.04±0.01 mg, P<0.01) [mg] |
| --- | --- | --- | --- | --- | --- | --- | --- | --- | --- | --- | --- | --- | --- | --- | --- | --- | --- | --- |
| N[C@@H](CCCCB(O)O)C(=O)O [ABH, 2(S)-amino-6-boronohexanoic acid] | 983 ± 345 | 1697 ± 1043 | highly significant reduction | 1.02±0.02 | 1.58±0.24 | 1.58 ± 0.24 | 1.02 | 2.04±0.34 | 1.56±0.47 | reversed the allergen-induced AHR after the EAR | trend towards a reduction | without effect | significant protection | 1.41±0.25 | 3.05±0.51 | 32.8 | almost completely prevented | 1.31 ± 0.69 |
| N=C(N)NCCC[C@H](N)C(=O)O [L-arginine] | – | – | – | – | – | – | – | – | – | reversed to a similar extent as with ABH | reversed to a similar extent as with ABH | did not affect | – | – | – | – | – | – |
| N=C(N)NCCC[C@@H](N)C(=O)O [D enantiomer of arginine, D-arginine] | – | – | – | – | – | – | – | – | – | did not affect | did not affect | did not affect | – | – | – | – | – | – |
